These results are taken from patent US8030314B2, “Use of 2h-benzimidazol-2-one, 1,3-dihydro-1-(2{4-[3-(trifluoromethyl)phenyl]-1-piperazinyl}ethyl)-and its physiologically acceptable acid addition salts” (priority 2001, dated 2011).

The test system of assay [1] is cultured dopaminergic cells (from fetal rat mesencephalic tissue). As to the kind of experiment: survival of cultured dopaminergic cells exposed to 6-hydroxydopamine. The format is cell-based. The note with it: toxin (6-hydroxydopamine) co-administered with flibanserin. The method, then: The reason of developing Parkinson's disease is a chronic process leading to a loss of dopaminergic neurons in a certain area of the EPS (substantia nigra). That process may be simulated in an experiment using cultured dopaminergic cells (from fetal rat mesencephalic tissue) which are exposed to a selective toxin (6-hydroxydompamine). The experiments were conducted in accordance with the method of Michel and Hefti, 1990. When the toxin was added to the cell culture medium the survival time of the neurons was markedly diminished. […] This indicates additionally neuroprotective properties of flibanserin. On the basis of these experiments it can be expected that patients treated with flibanserin will take benefit from said neuroprotective effect by slowing down or stopping the progression of the disease . Moreover, if flibanserin is given in early stages of the disease, a steady process leading to more severe stages may be postponed or even avoided. In particular, the occurrence of levodopa-induced dyskinesias can be prevented. In-so-far, a synergistic effect of the common administration of conventional anti-Parkinson drugs along with flibanserin in the treatment of Parkinson's disease is to be expected as increased “ON”-periods and decreased “OFF”-periods may be obtained.

The next assay relates to tardive dyskinesias. Description: persistent tardive dyskinesia model in baboons. The format is in vivo. The settings on record: baboons with persistent tardive dyskinesia induced by a haloperidol derivative for 41 weeks. From the text: The clinical appearance of levodopa-induced dyskinesias and of tardive dyskinesias are very often similar. […] dyskinesias are frequently observed in chronic schizophrenic patients after long-term treatment with neuroleptics. Recently an animal model of tardive dyskinesia was developed by Eyles at al. 2000. Persistent tardive dyskinesias were induced in 6 baboons by application of a derivative of haloperidol for 41 weeks until the animals developed abnormal orofacial signs that were consistent with tardive dyskinesia. These symptoms persisted during the drug-free period. The extent of dyskinesias was assessed by using a score derived fromt that applied in humans (Abnormal Involuntary Movement Scale). There was a significant improvement of dyskinesias by more than 50% after application of flibanserin. That means that flibanserin is also helpful in the treatment of tardive dyskinesia in chronic schizophrenic patients.

For assay [2], the system named is 5-HT inhibitory response (forskolin-stimulated cAMP accumulation). The settings on record: rat cortex; read-out: reduced forskolin-stimulated cAMP accumulation (EC50); cited from earlier work. For orientation: Cyclic AMP is a second messenger, typically raised through Gs and lowered through Gi signalling.
The next assay concerns the target 5-HT-induced PI turnover. The settings on record: rat cortex; read-out: antagonized 5-HT-induced PI turnover (Ki); cited from earlier work.
Another assay has as its system rat cortical firing rate. The note with it: in vivo; cited from earlier work.
In assay [3] the test system is levodopa-induced dyskinesias. As to the kind of experiment: levodopa-induced dyskinesias in MPTP-treated common marmosets. The format is in vivo, common marmosets (callithrix jacchus). The method, then: In order to investigate the efficacy of flibanserin in the treatment of levodopa-induced dyskinesias, experiments in a primate model of Parkinson's disease were performed. 6 common marmosets (callithrix jacchus) that developed chronical Parkinsonian motor deficits after MPTP administration were treated orally with levodopa plus carbidopa for 3 weeks according to the procedure described by Pearce et al. (1995). […] The severity of dyskinesias was measured by assessing the extent of choreic and dystonic movements in all parts of the body.

Each structure is given as a SMILES string.

On to `O=c1[nH]c2ccccc2n1CCN1CCN(c2cccc(C(F)(F)F)c2)CC1` [flibanserin, 2H-benzimidazol-2-one, 1,3-dihydro-1-(2-{4-[3-(trifluoromethyl)phenyl]-1-piperazinyl}ethyl)-], for which, in assay [1], the “concentrations at which normal survival times were reached” value fell in the range of 0.1 to 1 µM and the “survival time of neurons” value is reported as “increased in a concentration-dependent manner”. In addition, in the assay with tardive dyskinesias, the “improvement of dyskinesias (score derived from Abnormal Involuntary Movement Scale)” value is listed as “more than 50%”. Further, in assay [2], the EC50 is 913 nM. For the same molecule, the inhibitory constant (Ki) at 5-HT-induced PI turnover is 113 nM. Moreover, in the assay on rat cortical firing rate, the “inhibition of rat cortical firing rate” value is “dose-dependently inhibited rat cortical firing rate”. In assay [3] (flibanserin in addition to levodopa), the “effect of levodopa on rigidity and bradykinesia” value is listed as “not weakened”. For the same molecule, the “severity of dyskinesias (extent of choreic and dystonic movements)” value in assay [3] (flibanserin in addition to levodopa, MPTP marmosets treated orally with levodopa plus carbidopa for 3 weeks) is listed as “significantly reduced said dyskinesias”. The “dyskinesia symptoms in monkeys with less severe dyskinesia” value in assay [3] (some of the monkeys with less severe dyskinesia) is listed as “symptoms disappeared entirely”.

The EC50 is the concentration at which the effect is half-maximal. By Ki is commonly meant the dissociation constant of the complex between target and ligand, obtained from inhibition or displacement.
